pIC50: −log10 of the molar value.
system: human thrombocytes (PAF-induced aggregation); assay: inhibition of PAF-induced aggregation of human thrombocytes in vitro; type: cell-based; conditions: Homo sapiens, PAF-induced aggregation, read-out: IC50 (concentration for a 50% inhibition of aggregation)
Procedure: The PAF-antagonistic activity of some compounds of formula I was investigated by means of the inhibition of blood platelet aggregation in vitro and the antagonising of the PAF-induced bronchoconstriction in anaesthetised guinea pigs, the lowering of blood pressure in anaesthetised rats and skin wheals in rats. Moreover, these compounds were tested for any possible side effects on the central nervous system.
1. In vitro tests: inhibition of blood platelet aggregation
In order to determine the PAF-antagonistic activity of substances, the PAF-induced aggregation of human thrombocytes in vitro was used. In order to obtain thrombocyte-rich plasma (TRP) blood was taken from an unconstricted vein using a plastic syringe containing 3.8% of sodium citrate solution. The ratio of sodium citrate solution to blood was 1:9. After careful mixing, the citrated blood was centrifuged for 20 minutes at 150×g (1200 rpm). The thrombocyte aggregation was measured using the method developed by Born and Cross (G. V. R. Born and M. J. Cross, J. Physiol. 168, 178 (1963)), in which PAF is added to the TRP with constant stirring in order to initiate aggregation.
The test substance is added 2 to 3 minutes before aggregation is induced, in a volume of 10 μl. The solvent used is either distilled water, ethanol and/or dimethylsulphoxide. The controls were given corresponding volumes of this solvent. After the initial absorption had been recorded (2 to 3 minutes) aggregation was induced with PAF (5×10^-8 M).
The maximum of the first aggregation wave is used to assess the effects of the substance. The PAF-induced maximum absorption rate (=maximum aggregation×100%) is simultaneously tested in a parallel mixture (=control mixture in one of the channels of the 2-channel aggregometer) with each test batch (second channel) and is used as the 100% value.
The level of aggregation achieved under the effect of the […] is given […].
Each test substance is tested at concentrations of from 10^-3 to 10^-8 M with a random sampling range of n=4 in order to investigate an inhibiting effect on the PAF-induced thrombocyte aggregation. A concentration-activity curve is then plotted using 3 concentrations and the IC50 is determined (concentration for a 50% inhibition of aggregation). The IC values of compounds of general formula I are generally around levels of less than 9 μM.

Compound | pIC50
Cc1nnc2n1-c1ccc(Cl)cc1C(c1ccccc1Cl)=NC2 [Triazolam, triazolam, reference compound] | 5.05

same assay, conditions: PAF-induced aggregation, read-out: IC50 (concentration for a 50% inhibition of aggregation)

Compound | pIC50
Cc1nnc2n1-c1ccc(Cl)cc1C(c1ccccc1)=NC2 [Alprazolam, alprazolam, reference compound] | 4.85

same assay, conditions: Platelet, Table A, PAF 5×10^-8 M, human thrombocyte-rich plasma, read-out: IC50 (inhibition of blood platelets)

Compound | pIC50
Cc1nnc2n1-c1sc(CCS(=O)(=O)N3CCN(C)CC3)cc1C(c1ccccc1Cl)=NC2 [Example 1, 2-[4-(2-Chlorophenyl)-9-methyl-6H-thieno[3,2-f][1,2,4]triazolo[4,3-a][1,4]diazepin-2-yl]-ethane-1-sulphonic acid-N'-methylpiperazide] | 6.52
CC(=O)OCCCc1cc2c(s1)-n1c(C)nnc1CN=C2c1ccccc1Cl [Example 2, 3-[4-(2-Chlorophenyl)-9-methyl-6H-thieno[3,2-f][1,2,4]triazolo[4,3-a][1,4]diazepin-2-yl]propyl acetate] | > 6.70
CC(=O)OCCCCCCCc1cc2c(s1)-n1c(C)nnc1CN=C2c1ccccc1Cl [Example 4, 7-[4-(2-Chlorophenyl)-9-methyl-6H-thieno[3,2-f][1,2,4]triazolo[4,3-a][1,4]diazepin-2-yl]heptyl acetate] | > 6.70
Cc1nnc2n1-c1sc(CCCCCCCN3C(=O)c4ccccc4C3=O)cc1C(c1ccccc1Cl)=NC2 [Example 8, 2-(7-N-Phthalimidoheptyl)-4-(2-chlorophenyl)-9-methyl-6H-thieno[3,2-f][1,2,4]triazolo[4,3-a][1,4]-diazepine] | > 6.52
Cc1nnc2n1-c1sc(CCCCCCCN)cc1C(c1ccccc1Cl)=NC2 [Example 9, 2-(7-Amino-heptyl)-4-(2-chlorophenyl)-9-methyl-6H-thieno[3,2-f][1,2,4]triazolo[4,3-a][1,4]diazepine] | 6.70
CC(=O)NCCCCCCCc1cc2c(s1)-n1c(C)nnc1CN=C2c1ccccc1Cl [Example 10, 2-(7-Acetylaminoheptyl)-4-(2-chlorophenyl)-9-methyl-6H-thieno[3,2-f][1,2,4]triazolo[4,3-a][1,4]diazepine] | 5.77
Cc1nnc2n1-c1sc(CCCN3CCOCC3)cc1C(c1ccccc1Cl)=NC2 [Example 11, 2-(3-(N-Morpholinyl)propyl)-4-(2-chlorophenyl)-9-methyl-6H-thieno[3,2-f][1,2,4]triazolo[4,3-a][1.4]-diazepine] | > 6.70
Cc1nnc2n1-c1sc(CCCCCCC=O)cc1C(c1ccccc1Cl)=NC2 [Example 12, 2-(6-Formylhexyl)-4-(2-chlorophenyl)-9-methyl-6H-thieno[3,2-f][1,2,4]triazolo[4,3-a][1,4]diazepine] | 6.52
CC(=O)OCCCc1cc2c(s1)-n1c(Br)nnc1CN=C2c1ccccc1Cl [Example 13, 2-(3-Acetoxypropyl)-4-(2-chlorophenyl)-9-bromo-6H-thieno[3,2-f][1,2,4]triazolo[4,3-a][1,4]diazepine] | 6.52
Cc1nnc2n1-c1sc(CC(C)C(=O)N3CCOCC3)cc1C(c1ccccc1Cl)=NC2 (stereo not shown) [Example 14i, 2-[2-(Morpholin-4-yl-carbonyl)-n-propyl]-4-(2-chlorophenyl)-9-methyl-6H-thieno[3,2-f][1,2,4]triazolo[4,3-a][1,4]diazepine] | 6.40
Cc1nnc2n1-c1sc(CCCN3CCOCC3)cc1C(c1ccccc1Cl)NC2 (stereo not shown) [Example 14l, 2-[3-(N-Morpholinyl)-n-propyl]-4-(2-chlorophenyl)-9-methyl-4,5-dihydro-6H-thieno[3,2-f][1,2,4]triazolo-[4,3-a][1,4]diazepine] | 6.22
Cc1nnc2n1-c1sc(CCS(=O)(=O)N3CCOCC3)cc1C(c1ccccc1Cl)=NC2 [Example 20] | 6.52
Cc1nnc2n1-c1sc(CCCCCCCOS(C)(=O)=O)cc1C(c1ccccc1Cl)=NC2 [Example 23] | 6.05
Cc1nnc2n1-c1sc(CCCOC(=O)C(C)(C)C)cc1C(c1ccccc1Cl)=NC2 [Example 25] | 6.05
Cc1nnc2n1-c1sc(CCCCCCCOC(=O)C(C)(C)C)cc1C(c1ccccc1Cl)=NC2 [Example 27] | 6.70
Cc1nnc2n1-c1sc(CCCN3CCCCC3)cc1C(c1ccccc1Cl)=NC2 [Example 45] | 6.52
Cc1nnc2n1-c1sc(CCCCCCCN3CCN(C)CC3)cc1C(c1ccccc1Cl)=NC2 [Example 49] | 6.00
CC(=O)OCCCc1cc2c(s1)-n1cnnc1CN=C2c1ccccc1Cl [Example 50] | 6.22
Cc1nnc2n1-c1sc(CCCN3CCOCC3)cc1C(c1ccccc1)=NC2 [Example 54] | 5.96
CC(=O)OCCCc1cc2c(s1)-n1c(C)cnc1CN=C2c1ccccc1Cl [Example 56] | 6.52
CC(=O)OCCCCCCCc1cc2c(s1)-n1c(C)cnc1CN=C2c1ccccc1Cl [Example 58] | > 6.70
Cc1nnc2n1-c1sc(CCCCCCCNCCN(C)C)cc1C(c1ccccc1Cl)=NC2 [Example 60] | 6.05
Cc1nnc2n1-c1sc(CCCn3cncn3)cc1C(c1ccccc1Cl)=NC2 [Example 64] | > 6.70
CCN(CC)CCCc1cc2c(s1)-n1c(C)nnc1CN=C2c1ccccc1Cl [Example 71] | 6.05
Cc1nnc2n1-c1sc(CCCNCCN3CCOCC3)cc1C(c1ccccc1Cl)=NC2 [Example 75] | 5.72
Cc1nnc2n1-c1sc(CCCO)cc1C(c1ccccc1Cl)NC2 (stereo not shown) [Example 98] | 5.64
Cc1nnc2n1-c1ccc(Cl)cc1C(c1ccccc1Cl)=NC2 [Triazolam, triazolam, reference compound] | 5.05

same assay, conditions: Table A, PAF 5×10^-8 M, human thrombocyte-rich plasma, read-out: IC50 (inhibition of blood platelets)

Compound | pIC50
Cc1nnc2n1-c1ccc(Cl)cc1C(c1ccccc1)=NC2 [Alprazolam, alprazolam, reference compound] | 4.85

system: not given; assay: not given; conditions: commercially available tranquillisers or hypnotics; cited from earlier work

Compound | sedative effect of known benzodiazepines
Cc1nnc2n1-c1ccc(Cl)cc1C(c1ccccc1Cl)=NC2 [Triazolam, triazolam, reference compound] | marked sedative effect
